Data: patent US20060275238A1, “Topical cosmetic formulations for regulating and improving the moisture content of the skin” (Goldschmidt GmbH, priority 2005, published 2006)

Key:
skin = experiment: Corneometry, skin moisture before and after single application of test formulation; assay type: in vivo, subjects; details: single application in O/W cream, contact time two hours; concentration as in 10% active ingredient combination 1
Description: Corneometry is a noninvasive method which permits conclusions relating to the skin moisture on the basis of changes in the physical parameters within the stratum corneum. In practice, 12 to 15 subjects are recruited whose skin moisture is measured before and after single application of the test formulations using a HM99 corneometer (Courage & Khazaka, Cologne, Germany) according to the manufacturer's instructions.
After climatization of the subjects over 15 minutes under defined conditions of 22° C. and 55% relative humidity, the skin hydration is determined corneometrically and afterwards 50 mg of the test formulation are applied to a skin area each with a diameter of 2.5 cm, and after […] any residues of the formulation are removed.
After a contact time of two hours, the skin hydration is measured again following climatization of 15 minutes (22° C., 55% rel. humidity). An increase of the relative corneometer units CU correlates directly with improved skin hydration.
The concentrations of the individual substances were chosen so that they correspond to the concentration in 10% active ingredient combination 1.

[1] = In vitro sorption-desorption properties of moisturizers (weight increase vs relative atmospheric humidity); assay type: physicochemical; details: 24 h each; for ability to absorb water as the atmospheric humidity increases: 20% to 80% r.h. in 10% stages; for ability to store/hold the absorbed water as the atmospheric humidity decreases (hysteresis behavior): 80% r.h. reduced in 10% stages
Description: In order to determine the in vitro sorption-desorption properties of moisturizers, these were firstly dried overnight at 80° C. and 0% relative humidity (r.h.) and then cooled to room temperature in a desiccator. 4-5 g of the moisturizer substance were then placed into a Petri dish and stored for 24 h at 20% rh. The weight increase was recorded and the atmospheric humidity was then increased by 10%. After 24 h, the weight of the moisturizer was monitored again. This was repeated in stages to an atmospheric humidity of 80%. The atmospheric humidity was then reduced again every 24 h in 10% stages and the weight decrease was recorded.

SMILES | ΔCU, increase in the relative corneometer units compared with the blank formulation (skin) [CU] | ability to absorb water as the atmospheric humidity increases [1] | ability to store/hold the absorbed water as the atmospheric humidity decreases (hysteresis behavior) [1]
NC(N)=O [urea, Urea] | 3.6 | very good ability to absorb water | able to hold onto the absorbed water
OCC(O)CO [glycerol, 1,2,3-propanetriol, reference compound] | – | absorb the largest possible amounts of water | not able to do
C[N+](C)(C)CC(=O)[O-] [trimethylglycine, Trimethylglycine] | 3.2 | very good ability to absorb water | able to hold onto the absorbed water
CC(O)C(=O)[O-].[K+] (stereo not drawn) [potassium lactate, Potassium lactate] | 1.6 | – | –
